Data from patent US11787850B2, “Peptidic TGF-beta antagonists” (priority 2015, dated 2023).

B1: B: CD109-based peptide (100 aa), SEQ ID NO: 19 (protein)
chain: TMENVVHELELYNTGYYLGMFMNSFAVFQECGLWVLTDANLTKDYIDGVYDNAEYAERFMEENEGHIVDIHDFSLGSSPHVRKHFPETWIWLDTNMGSRIYQEFEVT
modifications: Peptide B
B2: E: CD109-based peptide (67 aa), SEQ ID NO: 20 (protein)
chain: LTKDYIDGVYDNAEYAERFMEENEGHIVDIHDFSLGSSPHVRKHFPETWIWLDTNMGSRIYQEFEVTV
modifications: Peptide E

Columns and labels:
[1] = test system: TGF-β-induced EMT in HaCaT cells; experiment: Immunofluorescence of F-actin and E-cadherin in HaCaT cells with pathway inhibitors; format: cell-based, human; conditions: for effect mediated by CD109 siRNA transfection on actin stress fibers appearance and relocalization of E-cadherin / effect on EMT markers in the absence of TGF-β: 0.5 μM SB431542, 1 μM SB203580, 10 μM U0126; for effect on EMT markers in the absence of TGF-β: data not shown
[2] = test system: TGF-β-induced fibronectin and Slug expression in HaCaT cells; experiment: Western blot for fibronectin and Slug in HaCaT cells with pathway inhibitors; format: cell-based, human; conditions: for effect of CD109 knock-down on TGF-β-induced Slug expression: 100 pM TGF-β1, 4 hrs, 0.5 μM SB431542, 10 μM U0126; for fibronectin production: CD109 siRNA HaCaT cells, 100 pM TGF-β1, 16 hrs, 0.5 μM SB431542, 1 μM SB203580, 10 μM U0126
[3] = test system: TGF-β-induced migration of HaCaT cells; experiment: Scratch assay in HaCaT cells with pathway inhibitors; format: cell-based, human; conditions: 100 pM TGF-β1, 36 hrs; 0.5 μM SB431542, 1 μM SB203580, 10 μM U0126
Protocol: (FIG. 18A) HaCaT cells transfected with control or CD109 siRNA were scratched and treated with or without 100 pM TGF-β1, 0.5 μM SB431542, 1 μM SB203580 and/or 10 μM U0126 for 36 hrs. Dotted line: wound margin at 0 hr, regular line: wound margin at 36 hrs.
Confluent monolayers of HaCaT or A431 cells were wounded by scrapping the cells with a 200 μl pipette tip. Cells were then incubated with 100 pM TGF-β1, in presence or absence of 10 μM U0126, 1 μM SB203580, 0.5 μM SB431542 in serum free medium for 24-48 hrs. Pictures were taken at the same spot at 0 hr, 24 hrs and 48 hrs. The cell-free area (wound) area was measured using ImageJ™ software and the percentage of original wound area filled with keratinocytes was calculated. At least 3 independents series of experiments were performed in triplicates.
Finally, it was determined whether CD109's effect on migration was also mediated by the SMAD2/3 and MAPK pathways.

[4] = test system: TGF-β-induced epithelial-mesenchymal transition (EMT) response in squamous cell carcinoma (A431) cells; experiment: Immunoblot of EMT markers in A431 cells; format: cell-based; conditions: 10 nM peptide, 100 pM TGF-b, 24 hrs (FIG. 33)
Protocol: (FIG. 26A) Immunoblot analysis was carried out using cell lysates of A431 cells following incubation with TGF-β, P16, or scrambled control (P16.2) as indicated to determine expression of proteins involved in the EMT response. (FIG. 26B) Densitometry analysis was subsequently performed using the developed immunoblot to illustrate the relative expression of each protein as a function as P16 concentration as indicated.
A431 cancer cells treated with 10 nM of P16.2 (negative peptide control), P12, P16 or PA in the absence or presence of 100 pM TGF-b, followed by 24 hrs of incubation. Cells lysates were analyzed by Western blot for the expression of Fibronectin (mesenchymal marker), Snail and Twist (EMT markers). Actin expression was used as loading control.

[5] = test system: TGF-β-induced migration of breast cancer (MDA-MB-231) cells; experiment: Scratch migration assay, MDA-MB-231 cells; format: cell-based; conditions: 10 nM peptide, 100 pM TGF-β1, 24 hours (FIG. 11)
Protocol: (§1) FIG. 11A and FIG. 11B illustrate that peptides B, E and X-1 inhibit TGF-β-induced cellular migration of MDA-MB-231 cells in vitro. Results are shown prior to treatment (0 hr, top panels) and after treatment (24 hr, bottom panels) for each of the peptides used.
(§2) Squamous cell carcinoma (A431) or breast cancer (MDA-MB-231) cells were grown to 80-90% confluence and serum-starved overnight. The next day, cells were scratched with a plastic pipette tip (time 0 hour) and then left untreated or treated for 24 hours with 100 pM TGF-β1 alone or in the presence of 10 nM peptide B (100 aa), E (67 aa), or X1 (P28, 28 aa). Digital images were captured at 0 h and 24 h (20× magnification) using an EVOS XL Core microscope.

[6] = test system: TGF-β-induced migration of squamous cell carcinoma (A431) cells; experiment: Scratch (wound closure) migration assay, A431 cells; format: cell-based; conditions: 10 nM peptide, 100 pM TGF-β1, 24 hours (FIG. 10)
Protocol: as §1, with “10A” for “11A”, “10B” for “11B”, “A431” for “MDA-MB-231”, “used. (See FIG. 2 and Table 1 for the amino acid sequence identity of the peptides).” for “used.”
A431 cells were grown to 80-90% confluence and serum-starved overnight. The next day, cells were scratched with a plastic pipette tip (time 0 hour) and then left untreated or treated for 24 hours with 100 pM TGF-β1 alone or in the presence of P16 as indicated. (FIG. 27A) Digital images were captured at 0 h and 24 h using an EVOS XL Core microscope. (FIG. 27B) Micrographs were subsequently quantitated to determine the percentage of the wound area that had closed following 24 hours in the presence or absence of P16, as indicated.
Cells were scratched with a pipette tip and treated without or with 100 pM TGF-b1 alone or in the presence of 10 nM Peptide A or Peptide A1 (C31S mutant). Pictures were taken at 0 and 24 hrs. Peptide A but not Peptide A1 inhibits TGF-b-induced migration in A431 cells. Peptide A contains monomeric and dimeric forms whereas Peptide A1 contains a C31S mutation to prevent intermolecular disulfide bond formation so that it forms monomers only.
as §2

[7] = test system: TGF-β1-induced Smad3-driven (CAGA12-lux) transcriptional activity; experiment: Luciferase reporter assay in HEK293-(CAGA)12 cells; format: cell-based; conditions: 10 nM or 5 nM peptide, 100 pM TGF-β1, 18 hours (FIG. 5)
[8] = Size-exclusion chromatography on Superdex Peptide 10/300GL column; format: physicochemical
Protocol: Approximately 200 μg of each peptide X (40 amino acids), X-1 (28 amino acids), peptide A (161 amino acids), P11 (11 amino acids), P16 (16 amino acids), P21 (21 amino acids, P16-2 (16 amino acids, scrambled sequence control), X-3 (16 amino acids) and X-4 (11 amino acids) were dissolved in phosphate-buffered saline (PBS) and loaded onto a Superdex Peptide 10/300GL column. The column was eluted with PBS at a flow rate of 0.6 mL/min and eluents were analyzed for peptide content by measuring relative absorbance at a wavelength of 215 nm. (FIGS. 3A and 3B) The data is plotted with relative absorbance (Y-axis) against elution volume (X-axis). Peptides 1-9 are color coded (A—peptides (1) to (5); B (peptides (6) to (9)). As shown on panel A, peptide X (peptide 1, black line) elution profile indicated two major peaks at approximately 8 mL and 11 mL which correspond to molecular weights greater than 12.4 kDa. The theoretical molecular weight of peptide X is 4.7 kDa which is expected to elute from the column at approximately 15 mL. Under the conditions tested, peptide X existed as high molecular weight aggregates with minimal soluble (monomeric) form. On the other hand, P16 (peptide 5, green line) elution profile indicated a broad peak between 14-22 mL which is expected to contain peptides of between 0.1 and 6 kDa and is consistent with its theoretical molecular weight of 2.01 kDa.
FIG. 4 illustrates the standard curve used for size-exclusion chromatography of standard peptides using the Superdex Peptide 10/300 GL column (results provided in FIG. 3). A pool of standard peptides of various molecular weights (1. cytochrome c (Mr 12.384 kDa) 1 mg/mL; 2. aprotinin (Mr 6.512 kDa) 2 mg/mL; 3. vitamin B12 (Mr 1.355 kDa) 0.1 mg/mL; 4. (Gly)3 (Mr 0.189 kDa) 0.1 mg/mL; 5. Gly (Mr 0.075 kDa) 7.8 mg/mL) were subjected to size-exclusion chromatography using the Superdex Peptide 10/300 GL column (flow rate 0.5 ml/min at room temperature, sample volume of 50 μL, eluent 0.05M phosphate, 0.15 M NaCl, ph 7.0). The resulting chromatogram (absorbance at 215 nm (in mAU, left Y axis) and conductivity (in mS/cm, right Y axis, in function of volume of elution (in mL)) indicates the elution profiles of the above peptides with high MW peptides eluting in earlier fractions and lower MW peptides eluting in later fractions as expected. The molecular weights of peptides were plotted against elution volume generating a standard curve (not shown).
More specifically, approximately […] of each peptide X (40 amino acids), X-1 (28 amino acids), peptide A (161 amino acids), P11 (11 amino acids), P16 (16 amino acids), P21 (21 amino acids, P16-2 (16 amino acids, scrambled sequence control), X-3 (16 amino acids) and X-4 (11 amino acids) were dissolved in phosphate-buffered saline (PBS) and loaded onto a Superdex Peptide 10/300GL column. The column was eluted with PBS at a flow rate of 0.6 ml/min and eluants were analyzed for peptide content by measuring relative absorbance at a wavelength of 215 nm. The data were plotted with relative absorbance (Y-axis) against elution volume (X-axis). […] The theoretical molecular weight of peptide X is 4.7 kDa which is expected to elute from the column at approximately 15 mL. […] P16 (peptide 5) elution profile indicated a peak between 14-22 mL which was expected to contain peptides of between 0.1 and 6 kDa and is consistent with its theoretical molecular weight of 2.01 kDa.
More specifically, a pool of standard proteins of various molecular weights were subjected to size-exclusion chromatography using the Superdex Peptide 10/300 GL column. The resulting chromatogram indicated the elution profiles of the peptides with high molecular weight peptides eluting in earlier fractions and lower molecular weight peptides eluting in later fractions as expected. The molecular weights of peptides were plotted against elution volume generating a standard curve (not shown) and was used to calculate molecular weights of the CD109-based peptides. […]

Row | Molecule | effect mediated by CD109 siRNA transfection on actin stress fibers appearance and relocalization of E-cadherin ([1]; 100 pM TGF-β1, 36 hrs) | effect on EMT markers in the absence of TGF-β [1] | fibronectin production [2] | inhibition of TGF-β-induced cellular migration of MDA-MB-231 cells [5] | inhibition of TGF-β-induced cellular migration of A431 cells [6] | also measured
1 | NC(=O)c1ccc(-c2nc(-c3ccc4c(c3)OCO4)c(-c3ccccn3)[nH]2)cc1 [SB431542] | reduces (but does not abrogate) | no effect | totally abrogated | – | – | appearance of actin stress fibers in control siRNA transfected cells ([1]; 100 pM TGF-β1, 36 hrs, 0.5 μM SB431542): totally prevents; effect of CD109 knock-down on TGF-β-induced Slug expression [2]: abrogated; increase of TGF-β-induced cell migration by CD109 knock-down [3]: partially reversed
2 | ETWIWLDTNMGS [Peptide P12] | – | – | – | – | – | inhibition of TGF-b induced EMT response (Fibronectin, Snail, Twist) [4]: not
3 | N#CC(=C(/N)Sc1ccccc1N)/C(C#N)=C(\N)Sc1ccccc1N [Peptide U0126, U0126] | reduces (but does not abrogate) | no effect | reduced | – | – | effect of CD109 knock-down on TGF-β-induced Slug expression [2]: abrogated; increase of TGF-β-induced cell migration by CD109 knock-down [3]: partially reversed
4 | ETWIWLDTNMGSRIYQEFEVTVPDSITS (Peptide X-1) | – | – | – | inhibit | inhibit | inhibition of TGF-β1-induced CAGA12-lux activity [7]: inhibited; formation of aggregates by size-exclusion chromatography ([8]; peptide in PBS, Superdex Peptide 10/300GL, 0.6 ml/min): formed aggregates; Aggregation? ([8]; size-exclusion chromatography, peptide dissolved in PBS): Aggregated
5 | C[S+]([O-])c1ccc(-c2nc(-c3ccncc3)c(-c3ccc(F)cc3)[nH]2)cc1 (stereo not shown) [SB203580] | reduces (but does not abrogate) | no effect | reduced | – | – | Slug expression ([2]; control siRNA and CD109 siRNA HaCaT cells, absence or presence of TGF-β, 1 μM SB203580): increases
6 | B1 | – | – | – | inhibit | inhibit | –
7 | B2 | – | – | – | inhibit | inhibit | –
